pIC50: −log10 of the molar value. In brackets after ≈: the same amount, converted by molar mass. Each block holds one compound with its values, some of them ahead of it.
Columns and labels:
A549 [1] = assay: Potency index, ratio of cisplatin IC50 to compound IC50 for antiproliferative activity against human A549 cells; assay type: functional
K562 [2] = assay: Potency index, ratio of cisplatin IC50 to compound IC50 for antiproliferative activity against human K562 cells; assay type: functional
MCF7 [3] = assay: Antiproliferative activity against human MCF7 cells after 48 hrs by MTT assay; assay type: functional, cell-based; settings: MCF7, 48 h
K562 [4] = assay: Antiproliferative activity against human K562 cells after 48 hrs by MTT assay; assay type: functional, cell-based; settings: K562, 48 h
A549 [5] = assay: Antiproliferative activity against human A549 cells after 48 hrs by MTT assay; assay type: functional, cell-based; settings: A549, 48 h
MCF7 [6] = assay: Potency index, ratio of cisplatin IC50 to compound IC50 for antiproliferative activity against human MCF7 cells; assay type: functional
Ishikawa = assay: Growth inhibition of human Ishikawa cells relative to control; assay type: functional
MDA-MB-231 [7] = assay: Growth inhibition of human MDA-MB-231 cells relative to control; assay type: functional
MCF7 [8] = assay: Growth inhibition of human MCF7 cells relative to control; assay type: functional
HepG2 [9] = assay: Anticancer activity against human HepG2 cells by MTT assay; assay type: functional, cell-based
HepG2 [10] = assay: Potency index, ratio of doxorubicin IC50 to compound IC50 for anticancer activity against human HepG2 cells by MTT assay; assay type: functional
HCT-116 = assay: Anticancer activity against human HCT116 cells; assay type: functional, cell-based
MDA-MB-231 [11] = assay: Anticancer activity against human MDA-MB-231 cells by MTT assay; assay type: functional, cell-based
MDA-MB-231 [12] = assay: Cytotoxicity against human MDA-MB-231 cells assessed as reduction in cell viability after 24 hrs by MTT assay; assay type: functional, cell-based; settings: Homo sapiens, MDA-MB-231, 24 h
MCF7 [13] = assay: Growth inhibition of human MCF7 cells; assay type: functional
L02 = assay: Cytotoxicity against human L02 cells assessed as reduction in cell viability after 24 hrs by MTT assay; assay type: cell-based; settings: L02, 24 h
DLD-1 = assay: Cytotoxicity against human DLD1 cells assessed as reduction in cell viability; assay type: functional, cell-based
HepG2 [14] = assay: Cytotoxicity against human HepG2 cells assessed as reduction in cell viability after 48 hrs by MTT assay; assay type: functional, cell-based; settings: HepG2, 48 h
HeLa [15] = assay: Anticancer activity against human HeLa cells by MTT assay; assay type: functional, cell-based
PC-3 = assay: Cytotoxicity against human PC3 cells assessed as reduction in cell viability by MTT assay; assay type: functional, cell-based
Caco-2 = assay: Antiproliferative activity against human Caco2 cells after 72 hrs by ELISA; assay type: functional, cell-based; settings: Caco-2, 72 h
HT-29 = assay: Cytotoxicity against human HT-29 cells assessed as reduction in cell viability by MTT assay; assay type: functional, cell-based
NCI-H460 = assay: Growth inhibition of human NCI-H460 cells; assay type: functional
MDA-MB-231 [16] = assay: Cytotoxicity against human MDA-MB-231 cells assessed as reduction in cell viability after 24 hrs in hypoxic condition by MTT assay; settings: MDA-MB-231, 24 h
A549 [17] = assay: Anticancer activity against human A549 cells by MTT assay; assay type: functional, cell-based
SF-268 = assay: Growth inhibition of human SF268 cells; assay type: functional
HepG2 [18] = assay: Antiproliferative activity against human HepG2 cells after 72 hrs by ELISA; assay type: functional, cell-based; settings: HepG2, 72 h
HeLa [19] = assay: Cytotoxicity against human HeLa cells assessed as reduction in cell viability by MTT assay; assay type: functional, cell-based
A549 [20] = assay: Cytotoxicity against human A549 cells assessed as reduction in cell viability by MTT assay; assay type: functional, cell-based
COS-7 = assay: Cytotoxicity against African green monkey COS7 cells assessed as reduction in cell viability by MTT assay; assay type: functional, cell-based; settings: Chlorocebus aethiops
K562 [21] = assay: Anticancer activity against human K562 cells by MTT assay; assay type: functional, cell-based
A549 [22] = assay: Cytotoxicity against human A549 cells assessed as reduction in cell viability after 24 hrs by MTT assay; assay type: functional, cell-based; settings: A549, 24 h
HeLa [23] = assay: Antiproliferative activity against human HeLa cells by MTT assay; assay type: functional, cell-based
HEK-293T = assay: Cytotoxicity against HEK293T cells assessed as reduction in cell viability after 24 hrs by MTT assay; assay type: cell-based; settings: Homo sapiens
769-P = assay: Anticancer activity against human 769-P cells by MTT assay; assay type: functional, cell-based
HeLa [24] = assay: Cytotoxicity against human HeLa cells assessed as reduction in cell viability after 24 hrs by MTT assay; assay type: functional, cell-based
MCF7 [25] = assay: Cytotoxicity against human MCF7 cells assessed as reduction in cell viability by MTT assay; assay type: functional, cell-based; settings: Homo sapiens, MCF7
[26] = Cytotoxicity against BHK cells assessed as reduction in cell viability by MTT assay; settings: Cricetinae

SMILES: Cc1cc(=O)oc2cc(Oc3nc(-c4cccs4)cn4c(-c5cccs5)cnc34)ccc12
growth inhibition (GI) (Ishikawa): 10.57 - 92.29%
growth inhibition (GI) (MDA-MB-231 [7]): 10.57 - 92.29%
growth inhibition (GI) (MCF7 [8]): 10.57 - 92.29%

SMILES: O=c1ccc2ccc(OCCn3cc(COc4ccc5ccc(=O)oc5c4)nn3)cc2o1
pIC50 (HepG2 [9]): 6.42
Ratio IC50 (HepG2 [10]): 2.1

SMILES: COc1cccc2c1C(=O)c1c(O)c3c(c(O)c1C2=O)C[C@@](O)(C(=O)CO)C[C@@H]3O[C@H]1C[C@H](N)[C@H](O)[C@H](C)O1 [DOXORUBICIN]
IC50 (MDA-MB-231 [11]): 0.45 to 0.89 µg/mL (≈ 0.828 to 1.64 µM)
pIC50 (MDA-MB-231 [12]): 5.29 to 5.40
GI50 (MCF7 [13]): 0.04 to 0.09 µM
pIC50 (L02): 5.96
growth inhibition (GI) (Ishikawa): 11.55 - 95.52%
pIC50 (HepG2 [9]): 6.05 to 6.35
pIC50 (DLD-1): 3.79
pIC50 (HepG2 [14]): 5.52
IC50 (HeLa [15]): 0.54 to 0.6 µg/mL (≈ 0.994 to 1.1 µM)
pIC50 (PC-3): 5.67 to 6.09
pIC50 (Caco-2): 5.29
pIC50 (HT-29): 5.67 to 6.09
GI50 (NCI-H460): 0.04 to 0.09 µM
pIC50 (MDA-MB-231 [16]): 6.22
IC50 (A549 [17]): 0.54 to 0.6 µg/mL (≈ 0.994 to 1.1 µM)
GI50 (SF-268): 0.04 to 0.09 µM
pIC50 (HepG2 [18]): 5.39
pIC50 (HeLa [19]): 5.52 to 6.09
pIC50 (A549 [20]): 5.67 to 6.09
pIC50 (COS-7): 5.52 to 5.69
IC50 (K562 [21]): 0.54 to 0.6 µg/mL (≈ 0.994 to 1.1 µM)
pIC50 (A549 [22]): 5.29 to 5.40
pIC50 (HeLa [23]): 5.96
pIC50 (HEK-293T): 5.42
pIC50 (769-P): 6.05 to 6.35
pIC50 (HeLa [24]): 5.29 to 5.40

SMILES: CN(Cc1cnc2nc(N)nc(N)c2n1)c1ccc(C(=O)N[C@@H](CCC(=O)O)C(=O)O)cc1 [METHOTREXATE]
pIC50 (MCF7 [25]): 4.57
pIC50 [26]: 3.82

Second part, led by results:

pIC50 (MCF7 [3]): 5.43 to 6.00
pIC50 (K562 [4]): 5.43 to 6.00
pIC50 (A549 [5]): 5.43 to 6.00
SMILES: CCN(CC)CCOc1ccc(-c2c(-c3ccc(NC(=O)CCCCCCCCC(=O)Nc4ccc(-c5c(-c6ccc(OCCN(CC)CC)cc6)c6ccc(OCCN(CC)CC)cc6oc5=O)cc4)cc3)c(=O)oc3cc(OCCN(CC)CC)ccc23)cc1
Ratio IC50 (A549 [1]): 2.4 - 8.3
Ratio IC50 (K562 [2]): 2.4 - 8.3
Ratio IC50 (MCF7 [6]): 2.4 - 8.3

pIC50 (HCT-116): 5.58
SMILES: NS(=O)(=O)c1ccc(Nc2nn3c(Cc4cc(=O)oc5ccccc45)nnc3s2)cc1
